Source: patent US20260060918A1, “HIGH-PERMEABILITY INCLUSION FOR SOOTHING SKIN REDNESS, HEAT, AND PAIN, AND PREPARATION METHOD AND USE THEREOF” (N.O.D TOPIA (GUANGZHOU) BIOTECHNOLOGY CO.,LTD., priority 2023, published 2026)

Test system: LPS-induced HaCaT cells
Experiment: Anti-inflammatory and soothing experiment: inflammatory factors secreted by LPS-induced HaCaT cells (ELISA)
Format: cell-based
Details: inclusion at volume ratio of 0.3% (dexamethasone 50 µg/mL) with 50 µg/ml LPS, 24 h, supernatant, Mean ± SD, n = 3
Experimental: In vitro stimuli can activate toll-like receptors (TLR-2 and TLR-4) on keratinocytes, leading to the activation of MAPK and NF-κB pathways. Then, the keratinocytes produce IL-1, IL-6, IL-8, TNF-α, and human HBD-2 (defensins), which induces inflammation and causes skin discomfort. The anti-inflammatory effects of the inclusions in Examples 1 to 9 and Comparative Examples 1 to 9 were evaluated by using LPS-induced HaCaT cells as an inflammatory cell model in vitro and detecting inflammatory factors IL-la, […], and TNF-α secreted in cell supernatant by an ELISA kit.
The HaCaT cells were inoculated into a 12-well plate with a density of 2.0-3.0×10^5 cells/well, and incubated in an incubator at a temperature of 37±1° C. and a humidity of 90±5%. After the incubation, the culture plate was taken out, and the original culture solution in the well was discarded. In the sample group, 1 mL of test samples with a volume ratio of 0.3% and 50 µg/ml of LPS culture solution were added to each well; in the model group, only 50 µg/mL of LPS culture solution were added; in the positive control group, 1 mL of dexamethasone ([…]) and LPS ([…]) culture solution was added, while in the blank negative control group, 1 mL of culture solution was only added for culturing 24 h. The supernatant was collected by centrifugation and stored at −80° C. Cytokines of IL-la, […], and TNF-α were determined by using the method described in the ELISA kit, and signals were detected at a wavelength of 450 nm. The content of inflammatory factors was shown in Table 6 by the secretion amount (pg) of IL-i1α, IL-1β, and TNF-α contained in each mL of the culture solution, and triplicate wells were set for each test.

`C[C@@H]1C[C@H]2[C@@H]3CCC4=CC(=O)C=C[C@]4(C)[C@@]3(F)[C@@H](O)C[C@]2(C)[C@@]1(O)C(=O)CO` [Dexamethasone, dexamethasone] was tested, and the “IL-1α secretion amount in culture solution” value (model group 63.29 ± 0.39) was 36.30 ± 0.21 pg/mL, the “IL-1β secretion amount in culture solution” value (model group 66.29 ± 0.29) was 24.67 ± 0.65 pg/mL and the “TNF-α secretion amount in culture solution” value (model group 92.33 ± 2.25) was 77.27 ± 2.96 pg/mL.
